Article PMC10477861, “Efficient Mining of Anticancer Peptides from Gut Metagenome” (Advanced Science, 2023)

Legend:
Details in all cases: 25 µM pACP, 24 h, maintenance medium 1% FBS, ratio of viability to vehicle (PBS), at least three technical repetitions
[1] = system: MCF7; test: MTT primary screening of anticancer activity, MCF7; format: cell-based
Source text: (§1) We successfully chemically synthesized 40 pACPs for the purpose of in vitro or in vivo characterization of their potential anticancer efficacy. In the initial step, we conducted an in vitro primary screen of these 40 pACPs using a panel of 16 different cancer cell lines, including four human CRC lines (HT29, Caco2, HCT116, and […]), as well as 12 other cancer models (Table S4, Supporting Information). We deliberately selected a diverse panel of cell lines to assess the effect of pACPs across various genetic backgrounds. Briefly, the cancer cells were cultured in specific media (details provided in the Experimental Section) and then treated with pACPs at a final concentration of 25 µM. Peptides with minimum effective inhibition concentrations >25 µM were considered non‐ACPs. After exposure to pACPs, the survival rate of the cancer cells was measured using the MTT assay. Remarkably, 39 out of the 40 pACPs (97.5%) induced at least 20% inhibition in at least one cell line (Figure 3a and Table S5, Supporting Information). […] Thus, our method successfully identified pACPs with a very high rate of anticancer effects across various cancer cell lines.
(§2) To evaluate the activity of the 40 potentially effective pACPs, a panel of 16 cancer cell lines was treated, including human CRC cell lines (HT29, Caco‐2, HCT116). Details of the cell lines used, respective media, and culture conditions were presented in Table S1 (Supporting Information). Once the cells reached 60% confluence, it was incubated with each candidate peptide at a concentration of 25 µM pACPs for 24 h. Concurrently, the complete medium was replaced with a maintenance medium containing only 1% FBS. Subsequently, the viability of each cell line using the MTT Cell Proliferation and Cytotoxicity Assay Kit according to the manufacturer's instructions was assessed. […] For the CRC cell line CT26, it was calculated the CC50 value using two peptides (pACP1780 and pACP2283) with relevant data presented in Table S6 (Supporting Information). The calculation was performed using an online tool: https://www.aatbio.com/tools/ic50‐calculator.

[2] = system: CT26; test: MTT primary screening of anticancer activity, CT26; format: cell-based, Murine
Source text: as §1, §2

[3] = system: HT29; test: MTT primary screening of anticancer activity, HT29; format: cell-based, Human
Source text: as §1, §2

[4] = system: Hela; test: MTT primary screening of anticancer activity, Hela; format: cell-based, Human
Source text: as §1, §2

[5] = system: BT474; test: MTT primary screening of anticancer activity, BT474; format: cell-based
Source text: as §1, §2

[6] = system: T47D; test: MTT primary screening of anticancer activity, T47D; format: cell-based
Source text: as §1, §2

[7] = system: EFM192A; test: MTT primary screening of anticancer activity, EFM192A; format: cell-based
Source text: as §1, §2

[8] = system: MDA-MB-453; test: MTT primary screening of anticancer activity, MDA-MB-453; format: cell-based
Source text: as §1, §2

[9] = system: MDA-MB-468; test: MTT primary screening of anticancer activity, MDA-MB-468; format: cell-based
Source text: as §1, §2

[10] = system: MDA-MB-231; test: MTT primary screening of anticancer activity, MDA-MB-231; format: cell-based
Source text: as §1, §2

[11] = system: LCC; test: MTT primary screening of anticancer activity, LCC; format: cell-based
Source text: as §1, §2

[12] = system: B16; test: MTT primary screening of anticancer activity, B16; format: cell-based, Mouse
Source text: as §1, §2

[13] = system: MDA-MB-436; test: MTT primary screening of anticancer activity, MDA-MB-436; format: cell-based
Source text: as §1, §2

[14] = system: Caco2; test: MTT primary screening of anticancer activity, Caco2; format: cell-based, Human
Source text: as §1, §2

[15] = system: SK-BR-3; test: MTT primary screening of anticancer activity, SK-BR-3; format: cell-based
Source text: as §1, §2

[16] = system: HCT116; test: MTT primary screening of anticancer activity, HCT116; format: cell-based, Human
Source text: as §1, §2

Row | Sequence | Survival rate of cancer cells in primary screening [1] | Survival rate of cancer cells in primary screening [2] | Survival rate of cancer cells in primary screening [3] | Survival rate of cancer cells in primary screening [4] | Survival rate of cancer cells in primary screening [5] | Survival rate of cancer cells in primary screening [6] | Survival rate of cancer cells in primary screening [7] | Survival rate of cancer cells in primary screening [8] | Survival rate of cancer cells in primary screening [9] | Survival rate of cancer cells in primary screening [10] | Survival rate of cancer cells in primary screening [11] | Survival rate of cancer cells in primary screening [12] | Survival rate of cancer cells in primary screening [13] | Survival rate of cancer cells in primary screening [14] | Survival rate of cancer cells in primary screening [15] | Survival rate of cancer cells in primary screening [16]
1 | AAGVSIEIHISLTLFTQVKCVARSQCAAEGAGLRHIKVAALQSCSRRRAH [pACP2] | 1.00 | 1.00 | 1.00 | 1.00 | 1.00 | 0.71 | 1.00 | 1.00 | 1.00 | 1.00 | 1.00 | 1.00 | 1.00 | 1.00 | 1.00 | 1.00
2 | CRLCTHGNVSACVLGKNAVFSVSAHNSDCPQPTCDFSSPLEECLESS [pACP177] | 1.00 | 1.00 | 1.00 | 1.00 | 1.00 | 0.59 | 1.00 | 1.00 | 1.00 | 1.00 | 1.00 | 0.73 | 1.00 | 1.00 | 1.00 | 1.00
3 | DRGERVAHGLDLLDGVVAEGVAAKGDDNTIGLAKRLRHCWNPFCKRPTTH [pACP253] | 1.00 | 1.00 | 1.00 | 1.00 | 1.00 | 0.70 | 1.00 | 1.00 | 0.76 | 1.00 | 1.00 | 1.00 | 1.00 | 1.00 | 1.00 | 1.00
4 | DSYGNRTEIERKIWRRYPCGYSCGTGEVKCDKEEWKKEYW [pACP264] | 0.72 | 1.00 | 1.00 | 1.00 | 1.00 | 0.70 | 1.00 | 1.00 | 1.00 | 1.00 | 1.00 | 0.73 | 1.00 | 1.00 | 1.00 | 1.00
5 | ERRVGYSWYGTWGNKVLKKYPEWLRRLTEKK [pACP341] | 0.66 | 0.60 | 1.00 | 1.00 | 0.62 | 1.00 | 1.00 | 1.00 | 0.74 | 1.00 | 1.00 | 0.74 | 1.00 | 1.00 | 1.00 | 1.00
6 | GLTSESVKSRCVKCLLYIKKSGATHDDNALHRTYCRNNCYRL [pACP550] | 1.00 | 1.00 | 1.00 | 1.00 | 1.00 | 1.00 | 1.00 | 1.00 | 1.00 | 1.00 | 1.00 | 0.78 | 1.00 | 1.00 | 1.00 | 1.00
7 | GNPAKQEIKVPGALGKGSCVQSGAGVGPRCRVPCGPLSGGMALFCYE [pACP555] | 1.00 | 1.00 | 1.00 | 1.00 | 1.00 | 0.74 | 1.00 | 1.00 | 1.00 | 1.00 | 1.00 | 0.75 | 1.00 | 1.00 | 1.00 | 1.00
8 | GVPMGSVIKKRRKRMAKKKHRKLLRKTRHQRRNKK [pACP593] | 1.00 | 1.00 | 1.00 | 0.74 | 0.78 | 0.71 | 1.00 | 0.63 | 1.00 | 1.00 | 1.00 | 1.00 | 1.00 | 1.00 | 1.00 | 1.00
9 | GWKKSQCCRNGFYRERGQQQAKNFMSQESFPVRENGE [pACP602] | 0.77 | 1.00 | 1.00 | 1.00 | 1.00 | 0.70 | 1.00 | 1.00 | 1.00 | 1.00 | 1.00 | 0.80 | 1.00 | 1.00 | 1.00 | 1.00
